Data: patent publication US4431650A, “Esters of benzofuranyl acids” (Union Carbide Corporation, priority 1980, dated 1984)
Values after ≈ are worked out from the molar mass of the structure shown.

How the values were obtained:
Format in all cases: in vivo
[1] = tested on: bean aphid (Aphis fabae Scop.); experiment: Bean Aphid Foliage Spray Test; conditions: foliar, foliage spray on nasturtium plants, adults and nymphs, mortality after 24 hour holding period, read-out: LD50 Aphid
Description: (§1) Suspensions of the test compounds were prepared by dissolving one gram of compound in 50 milliliters of acetone in which had been dissolved 0.1 gram (10 percent of the weight of compound) of an alkylphenoxy polyethoxyethanol surfactant, as an emulsifying or dispersing agent. The resulting solution was mixed into 150 milliliters of water to give roughly 200 milliliters of a suspension containing the compound in finely divided form. The thus-prepared stock suspension contained 0.5 percent by weight of compound. The concentrations in parts per million by weight employed in the tests described hereinbelow were obtained by appropriate dilutions of the stock suspension with water. The test procedures were as follows:
Adults and nymphal stages of the bean aphid (Aphis fabae Scop.) reared on potted dwarf nasturtium plants at 65°-70° F. and 50-70 percent relative humidity, constituted the test insects. For testing purposes, the number of aphids per pot was standardized to 100-150 by trimming plants containing excess aphids. […]
The potted plants (one pot per compound tested) infested with 100-150 aphids, were placed on a revolving turntable and sprayed with 100-110 milliliters of test compound formulation by use of a DeVilbiss spray gun set at 40 psig. air pressure. […] Percent mortality was recorded for various concentration levels. […]

[2] = tested on: two-spotted mite (Tetranychus urticae Koch); experiment: Mite Foliage Spray Test; conditions: foliar, 144 h, foliage spray on bean plants, adults and nymphs, mortality count of motile forms after six days, read-out: LD50 Mite
Description: as §1
Adults and nymphal stage of the two-spotted mite (Tetranychus urticae Koch), reared on Tendergreen bean plants at 80±5 percent relative humidity, were the test organisms. Infested leaves from a stock culture were placed on the primary leaves of two bean plants six to eight inches in height, growing in a two-and-a-half inch clay pot. 150-200 Mites, a sufficient number for testing, transferred from the excised leaves to the fresh plants in a period of twenty four hours. Following the twenty four hour transfer period, the excised leaves were removed from the infested plants. […]

[3] = tested on: southern armyworm (Spodoptera eridania, (Cram.)); experiment: Southern Armyworm Leaf Spray Bait Test; conditions: 72 h, larvae on sprayed bean leaves, held three days, read-out: LD50 SAW
Description: as §1
Larvae of the southern armyworm (Spodoptera eridania, (Cram.)), reared on Tendergreen bean plants at a temperature of 80°±5° F. and a relative humidity of 50± percent, constituted the test insects.
The test compounds were formulated by diluting the stock suspension with water to give a suspension containing 500 parts of test compound per million parts of final formulation. Potted Tendergreen bean plants of standard height and age were placed on a revolving turntable and sprayed with 100-110 milliliter of test compound formulation by use of a DeVilbiss spray gun set at 10 psig air pressure. […] Percent mortality was recorded for various concentration levels. […]

[4] = tested on: Mexican bean beetle (Epilachna variestis, Muls.); experiment: Mexican Bean Beetle Leaf Spray Test; conditions: 72 h, read-out: LD50 MBB
Description: as §1
Fourth instar larvae of the Mexican bean beetle (Epilachna variestis, Muls.), reared on Tendergreen bean plants at a temperature of 80°±5° F. and 50±5 percent relative humidity, were the test insects.
The test compounds were formulated by diluting the stock suspension with water to give a suspension containing 500 parts of test compound per million parts of final formulation. Tendergreen bean plants of standard height and age were placed on a revolving turntable and sprayed with 100-110 milliliters of test compound formulation by use of a DeVilbiss spray gun set at 10 psig air pressure. This application, which lasted 25 seconds, was sufficient to wet plants to run-off. […]

[5] = tested on: house flies (Musca domestica, L.); experiment: Fly Bait Test; conditions: po, 24 h, adult flies, bait in 10 percent sugar solution, twenty four hours, read-out: LD50 HF
Description: as §1
Four to six day old adult house flies (Musca domestica, L.), reared according to the specifications of the Chemical Specialities Manufacturing Association (Blue Book, McNair-Dorland Co., N.Y. 1954; pages 243-244, 261) under controlled conditions of 80± F. and 50±5 percent relative humidity, were the test insects. The flies were immobilized by anesthetizing with carbon dioxide and twenty five immobilized individuals,males and females, were transferred to a cage consisting of a standard food strainer about five inches in diameter which was inverted over a wrapping-paper-covered surface. […]

Corn = experiment: Phytotoxicity, corn; design: key: 1 = No plant injury at a dose of 2500 ppm; conditions: rating; dose of 2500 ppm
Cott. = experiment: Phytotoxicity, cotton; design: key: 1 = No plant injury at a dose of 2500 ppm; conditions: rating; dose of 2500 ppm
Soybean = experiment: Phytotoxicity, soybean; design: key: 1 = No plant injury at a dose of 2500 ppm; conditions: rating; dose of 2500 ppm

Row | SMILES | LC50 [1] [µg/mL] | LC50 [2] [µg/mL] | LC50 [3] [µg/mL] | LC50 [4] [µg/mL] | LC50 [5] [µg/mL] | Phytotoxicity Corn (Corn) | Phytotoxicity Cott. (Cott.) | Phytotoxicity Soybean (Soybean)
1 | CC(C)C(C(=O)OC(C#N)c1cccc(Oc2ccccc2)c1)c1cc2ccccc2o1 (stereo not shown) | ~0.7 (≈ 1.65 µM) | 210 (≈ 494 µM) | ~45 (≈ 106 µM) | 11 (≈ 25.9 µM) | 23 (≈ 54.1 µM) | 1 | 1 | 1
2 | C#CC(OC(=O)C(c1cc2ccccc2o1)C(C)C)c1cccc(Oc2ccccc2)c1 (stereo not shown) | 0.8 (≈ 1.88 µM) | 200 (≈ 471 µM) | 52 (≈ 122 µM) | 5 (≈ 11.8 µM) | ~180 (≈ 424 µM) | 1 | 1 | 1
